Measured values as given in US11331330B2, “Phytochemical-antibiotic combination for the treatment of a bacterial infection” (University of Saskatchewan, priority 2018, dated 2022).
In brackets after ≈: the same amount, converted by molar mass. Entries after “also recorded” stand apart in the source; their conditions may differ.

What was measured:
[1] = system: Mannheimia haemolytica ATCC 29702; assay: MIC by standard broth micro dilution assay (CLSI); format: cell-based; settings: ATCC29702, M. haemolytica, BHIB, 37° C., 18-24 h
Procedure: (§1) The bacterial strains of Mannheimia haemolytica ATCC 29702 and Pasteurella multocida ATCC 43137 were purchased from American Type Culture Collection (ATCC) distributor CEDARLANE Corporation, Burlington, Ontario, Canada and revived according to the manufacturer's instruction. Bacteria were grown in Brain Heart Infusion broth (BHIB).
(§2) MIC of tulathromycin and gallic acid against Mannheimia haemolytica and Pasteurella multocida was determined by using standard broth micro dilution assay as outlined by CLSI (Richard S, Lynn S-M, Avery C G. Antimicrobial susceptibility testing protocols. New York: CRC Press; 2007). Strains were sub-cultured in Brain Heart Infusion Broth (BHIB), incubated at 37° C. overnight and bacterial suspension OD was adjusted with the media to 0.5 McFarland turbidity as per CLSI protocol (Approx. cell density 1.5×10^8 CFU/mL) using normal saline as control. 100 μl of broth was added to each well (including positive control wells) and then serial dilution of tulathromycin (5 to 0.04 μg/ml) and gallic acid (500 to 3.9 μg/ml) was executed. 5 μl of bacterial sample was added to all the wells except the positive control well. […] Plates were then incubated at 37° C. for 18-24 h and were subsequently read automatically by using 96 well plate reader (BIORAD iMark Microplate Reader) at 655 nm. The readings were double checked manually using the Sensititre Vizion System.

[2] = system: Pasteurella multocida ATCC 43137; assay: MIC by standard broth micro dilution assay (CLSI); format: cell-based; settings: ATCC43137, P. multocida, BHIB, 37° C., 18-24 h
Procedure: as §1, §2

[3] = system: co-culture of M. haemolytica and P. multocida; assay: MIC against the co-culture; format: cell-based
Procedure: MIC of tulathromycin, gallic acid and its combinations were determined against the co-culture of M. haemolytica and P. multocida. The overnight grown cultures of M. haemolytica and P. multocida were adjusted to 0.5 McFarland standard turbidity in BHIB, and then equal proportion of each of the cultures was added in the 96 well plates. After the addition of serially diluted drugs, the plates were incubated at 37° C. overnight and read as of above.

[4] = system: M. haemolytica ATCC 29702; assay: Synergy studies, checker board serial dilution; format: cell-based, Mannheimia haemolytica; settings: gallic acid alone, 3.9 μg/ml dose
Procedure: (§3) For the drug interaction studies, gallic acid was mixed with tulathromycin to test the drug interactions between tulathromycin and gallic acid. This was done by a checker board serial dilution technique performed in 96-well polypropylene plates (as explained elsewhere, for example, in [11]). The fractional inhibitory concentration (FIC) index of the combinations of antimicrobial compounds was calculated according to the equation: FIC index=FICA+FICB=A/MICA+B/MICB where A (gallic acid) and B (Tulathromycin) are the MICs of compound A and compound B in combination. MICA and MICB are the MICs of compound A and compound B, separately, FICA and FICB are the FICs of compound A and compound B (Hal M J J Antimicrob Chemother. 1983 May; 11(5):427-33). Results (a) Antimicrobial Activity of Tulathromycin and Gallic Acid
(§4) • FICA, FICB—Fractional inhibitory concentration of drug A & B respectively. • MICA, MICB—Minimum inhibitory concentration of drug A & B respectively. • [A], [B]—Concentration of drug A & B respectively. • The FIC indexes were interpreted as follows: synergy is defined as ≤0.5; additivity is defined as 0.5<4.0; and antagonism is defined as >4. (d) Resistance Generation Study Results

P. multocida ATCC 43137 = assay: Synergy studies, checker board serial dilution; format: cell-based, Pasteurella multocida; settings: gallic acid alone, 3.9 μg/ml dose
Procedure: as §3, §4

M. haemolytica = assay: Resistance generation study; format: cell-based, Mannheimia haemolytica; settings: sub-MIC (1/2 MIC) doses, stress generation conditions
Procedure: (§5) For the resistance generation studies, M. haemolytica and P. multocida were cultured in the presence of sub-MIC doses (1/2 MIC) of tulathromycin and gallic acid individually until they reach 1 unit OD at 565 nm. The bacterial cells were then given antibiotic stress relaxation by culturing them in BHIB till 1 OD unit of turbidity is reached at 565 nm. This first pass cycle of culturing in sub-MIC dose of tulathromycin, and relaxing in BHIB is considered as 1st generation (1G-TulathromycinA). The cycle as above was repeated to obtain 2nd and 3rd generation of bacterial cultures. Subsequently, MIC assays were performed with all the three generations of the two bacterial strains to evaluate the level of sensitivity towards tulathromycin. The experiments were repeated with gallic acid.
(§6) Bacteria were treated individually with sub-MIC dose (½ MIC) of tulathromycin and gallic acid with alternate relaxation of stress in BHIB for […] each. Each 24 hrs treatment was considered as 1 generation (24 hrs drug+24 hrs of BHIB).

P. multocida = assay: Resistance generation study; format: cell-based, Pasteurella multocida; settings: sub-MIC (1/2 MIC) doses, stress generation conditions
Procedure: as §5, §6

arginase = arginase inhibitor; cited from earlier work

For `O=C(O)c1cc(O)c(O)c(O)c1` [gallic acid], the MIC [1] was 250 mg/L (≈ 1470 µM), the MIC [2] was 500 mg/L (≈ 2940 µM) and the MIC [3] was 500 mg/L. The “maximum reduction in bacterial growth” value [4] was 7.70%, the “maximum reduction in bacterial growth” value (P. multocida ATCC 43137) was 5.33% and the “effect of sub-MIC pre-treatment on sensitivity of the bacteria” value (M. haemolytica) was “does not affect the sensitivity; also recorded: no effect on the sensitivity”. For the same molecule, the “effect of sub-MIC pre-treatment on sensitivity of the bacteria” value (P. multocida) was “did not alter the sensitivity; also recorded: no effect on the sensitivity” and the IC50 (arginase) was 2.2 µM.
